From publication PMC4530474, “Carbohydrate scaffolds as glycosyltransferase inhibitors with in vivo antibacterial activity” (Nature Communications, 2015)
Converted amounts (≈) assume the structure as drawn. “And” between values parts separate entries of the source, which are not always exact repeats. Identical values can stand only once. “Also recorded” adds a separate entry of the source.

Assays:
[1] = tested on: S. aureus; assay: MIC of disaccharide and monosaccharide libraries (Figures 2, 3); settings: Staphylococcus aureus
Description: (§1) Bacteria were cultured in Brain–Heart Infusion (Bacto laboratories, Cat. no. CM1135B) at 37 °C overnight. […] MICs were determined visually as the lowest concentration showing no visible growth.

[2] = tested on: Gram-positive bacteria; assay: MIC of disaccharide library; format: cell-based
From the text: In the second stage, we used the disaccharide structure–activity relationship information to design more synthetically feasible and smaller monosaccharide molecules. A versatile solid-phase method was developed to rapidly synthesize the representatives of three different core chemotypes M1 to M3, starting from a single monosaccharide building block, that is, 1,5-anhydro-galactitol (see Fig. 3). Chemotype M1 explored the option of using only two of the hydrophobic elements, whereas the other two, M2 and M3, used a benzimidazole moiety as the third hydrophobic group (Fig. 3).

[3] = tested on: S. aureus (Smith); assay: Mouse model of septicemia
Description: In vivo Septicaemia mouse model
Groups of 10 male CD-1 (Crl.) derived mice weighing 22 ± 2 g were used. The mice were inoculated
of brain-heart infusion broth containing 5% mucin. Compounds were dissolved in 0.05% Tween
80/0.9% NaCl. Vehicle and compounds at 50 and 100 mg kg-1 were each administered intraperitoneally
10 and/or 180 minutes after S. aureus (Smith) challenge. Ampicillin (0.1 mg kg-1, IP, as positive control
agent) was administered to test animals at 1 h after the inoculation. Mortality was monitored once
For the corresponding IV studies compounds at 4 mg kg-1 were dissolved in 10% DMSO/0.1 M HCl/1%
Tween 80/5% glucose, and compounds were each administered intravenously at 10 min and/or 180
min after S. aureus (Smith) challenge.

[4] = in vivo; settings: male, CD-1, mouse, ip
Description: In vivo Maximum Tolerated Dose
(§2) Compound dissolved in 0.05% Tween 80/0.9% NaCl were each administered IP at doses of 20, 60 and
(§3) 100 mg kg-1 to groups of 2 CD-1 (Crl.) derived male mice weighing 22 ± 2 g. The animals were observed
(§4) for presence of acute toxic symptoms (mortality, convulsions, tremors, muscle relaxation, sedation,
(§5) etc.) and autonomic effects (diarrhea, salivation, lacrimation, vasodilation, piloerection, etc.) during
the first 30 min post-dosing.
(§6) For the IV studies, compounds were dissolved in 10% DMSO/0.1 M HCl/1% Tween 80/5% Glucose were
(§7) prepared at a dose of 4 mg kg-1 and were administered intravenously once to groups of 3 CD-1 (Crl.)
(§8) derived male mice weighing 22 ± 2 g, and monitored and analyzed similar to the IP study during the
(§9) first 5 min post dosing (IV). In addition, Group 3 and Group 5 were administered intravenously with
(§10) compounds at 4 mg kg-1 for 2 times (T=0 and T=170 minutes) and the autonomic signs and neurological
(§11) changes were observed during the first 5 min after the first and the second dose. Mortality was also

[5] = tested on: E.coli; assay: MIC, chemotype M3 library (Supplementary Table 1); settings: Escherichia coli
Description: as §1

[6] = tested on: E. faecium ATCC 35667; assay: MIC determination (broth microdilution); settings: Enterococcus faecium, ATCC35667
Description: as §1

[7] = in vivo; settings: male, Sprague Dawley, rat, iv, 3.5 mg/kg
Description: In vitro metabolic stability studies
(§12) Compounds (1 μM) were incubated at 37 °C with human or mouse liver microsomes. The reaction was
(§13) initiated by the addition of an NADPH-regenerating system and quenched at various time points over
(§14) the incubation period by the addition of acetonitrile. Additional samples co-activated by NADP and
(§15) UDPGA (the co-factor for glucuronidation), were included in the incubation for the qualitative
(§16) assessment of the potential for glucuronide formation. The relative loss of parent compound and
(§17) formation of metabolic products was determined by LC/MS using the Q-TOF instrument. The studies
(§18) were conducted by a contract research organization (Centre for Drug Candidate Organization, Monash
University, Melbourne, Australia).
In vivo efficacy and PK studies
(§19) The in vivo pharmacokinetics of the compounds were studies in overnight-fasted male Sprague Dawley
(§20) Rats had access to water ad libitum throughout the pre- and post-dose
(§21) sampling period, and access to food was re-instated 4 hours post-dose. Compounds were
(§22) administrated IV as a 10 minute constant rate infusion (1.0 mL per rat, n=2 rats). Samples of arterial
(§23) Arterial blood was collected directly into
(§24) borosilicate vials (at 4 °C) containing heparin, Complete (a protease inhibitor cocktail), potassium
(§25) fluoride and EDTA to minimize potential for ex vivo degradation. Once collected, blood samples were
(§26) centrifuged, supernatant plasma was removed, and plasma concentration of compounds were
(§27) determined by LCMS (LLQ 0.0014 M). The studies were conducted by a contract research organization
(§28) (Centre for Drug Candidate Organization, Monash University, Melbourne, Australia).

[8] = tested on: bacterial PG biosynthesis in crude B. megaterium membrane; assay: In vitro PG biosynthesis, [14C]UDP-GlcNAc incorporation into lipid II and PG, TLC; settings: for Accumulation of lipid II / Inhibit of PG: vs no antibiotic
From the text: To elucidate the mode of action of the inhibitors, we conducted various GT enzyme inhibition assays. […] This assay monitors [^14C]UDP-GlcNAc incorporation into lipid II and mature PG, in the presence of different concentrations of antibiotics[39]. Owing to the sequential nature of the glycosyltransfer and transpeptidation, it is not possible to determine at which step PG biosynthesis is blocked in this assay. The low concentration of lipid II can be detected by thin-layer chromatography (TLC) separation and subsequent phosphorimaging of pre-solubilized membranes, which was incubated with the cytoplasmic PG precursors UDP-MurNAc-pentapeptide and UDP-[^14C]GlcNAc[41][42].
The cell-free particulate fraction of B. megaterium KM (ATCC13632), capable of catalysing the polymerization of PG from UPD-linked precursors was performed as described previously[61]. B. megaterium was grown in standard medium, harvested and washed with Tris-buffer by centrifugation. Resuspended bacteria were subjected to three freeze/thaw cycles (5 min dry ice, followed by 10 min at RT), homogenized by the glass homogenizer and centrifuged all at 4 °C, leaving most of the cell wall in the pellet. […] After separation, plates were dried, exposed to phosphorimaging screen (1 week), scanned by Typhoon 8600 calculating the integrated density value of each band on silica gel. Changes of PG or lipid II were calculated as a percentage from negative control (for more details see Supplementary Methods).
Inhibition of Lipid II and peptidoglycan biosynthesis
The cell-free particulate fraction of Bacillus megaterium KM (ATCC13632), capable of catalysing the
polymerisation of PG from UPD-linked precursors was performed as described previously 19 with some
modification. Bacillus megaterium was grown in the medium containing tryptone (Difco-Bacto), 1%
the pH to 7.2. Bacteria were harvested when the density had reached to 0.4 mg dry weight mL-1 and
washed in the buffer 0.05 M Tris-HCl (pH 7.8) containing 10 mM MgCl2 by centrifugation at 6,000 x g
for 10 min at 4 °C. All subsequent manipulations were carried out as close to 0 °C as possible.
bacteria were resuspended in the same buffer at a density of 50 mg dry weight ml-1. Then the bacteria
were subjected to three freeze/thaw cycles (dry ice for 5 min followed by RT for 10 min).
freeze/thaw cycles, bacteria were homogenized by using the glass homogenizer at 4 °C (10 min × 2).
The broken cell suspension was centrifuged at 6,000 x g for 10 min at 4 °C. The supernatant which
contained the unbroken cells and the majority of the cell walls was kept for further centrifugation.

[9] = tested on: E. faecalis ATCC 29212; assay: MIC determination (broth microdilution); settings: Enterococcus faecalis, ATCC29212
Description: as §1

[10] = tested on: S. aureus mMRSA, DRSA, ci; assay: MIC determination (broth microdilution); settings: Staphylococcus aureus
Description: as §1

[11] = microsomes
Description: In vitro metabolic stability studies
as §12, §13, §14, §15, §16, §17, §18
University, Melbourne, Australia).
In vivo efficacy and PK studies
as §19, §20, §21, §22, §23, §24
(§29) fluoride and EDTA to minimize potential for ex vivo degradation. Once collected, blood samples were […]
determined by LCMS (LLQ 0.0014 M). […]

[12] = tested on: S. aureus NRS 17—GISA; assay: MIC determination (broth microdilution); settings: Staphylococcus aureus, NRS17
Description: as §1

[13] = tested on: S. aureus Newbould 305; assay: MIC determination (Mueller-Hinton agar dilution); format: cell-based; settings: Staphylococcus aureus
From the text: guidelines 23. […] In addition
The animal experiments were
To evaluate the dose-response

[14] = In vivo pharmacokinetics, i.v. administration to male rats; settings: Sprague Dawley, rat, iv, 3.5 mg kg^-1
Description: In vitro metabolic stability studies
as §12, §13, §14, §15, §16, §17, §18
University, Melbourne, Australia).
In vivo efficacy and PK studies
as §19, §20, §21, §22, §23, §24, §25, §26, §27, §28

[15] = mouse liver microsomes, 1 μM, 37 °C
Description: In vitro metabolic stability studies
as §12, §13, §14, §15, §16, §17, §18
University, Melbourne, Australia).
In vivo efficacy and PK studies
as §19, §20, §21, §22, §23, §24, §29
determined by LCMS (LLQ 0.0014 M). […]

[16] = tested on: S. aureus (Newbould 305, ATCC 29740); assay: Mouse mammary gland infection (mastitis) model
Description: Each compound was instilled at different doses into the teat canal of both contralateral glands from the fourth mammary gland pair of lactating mice at 4 h after bacterial inoculation.
The procedure for mouse mammary gland infection has been recently described[64]. CD-1 lactating mice were utilized 12–14 days after giving birth, with pups weaned 1–2 h before bacterial inoculation of the mammary glands. Inoculation of both left (L4) and right (R4) glands of the fourth abdominal mammary gland pair of anesthetized mice with 150 c.f.u. of S. aureus, was done using 32-gauge syringes (blunt needle). The antimicrobial formulation was instilled into the mammary gland of anesthetized mice at 4 h after bacterial inoculation, followed by i.p. administration of postoperative analgesic Buprecare. […] Bacterial c.f.u. counts were obtained after quantification of serial logarithmic dilutions of mammary gland homogenates on TSA. The detection limit (DL) was 1.7 log10 c.f.u. g^−1 gland weight (for more details see Supplementary Methods).
The actual colony forming units (CFU) of the inocula was confirmed by overnight culture of a serial logarithmic dilution on tryptic soy agar (TSA; Oxoid Limited) plates.

[17] = tested on: E. faecium; assay: MIC, chemotype M3 library (Supplementary Table 1); settings: Enterococcus faecium
Description: as §1

[18] = tested on: E. faecium VanA, ATCC 51559; assay: MIC determination (broth microdilution); settings: Enterococcus faecium, ATCC51559
Description: as §1

[19] = tested on: E. faecium VanB; assay: MIC, chemotype M3 library (Supplementary Table 1); settings: Enterococcus faecium
Description: as §1

[20] = rat, in vivo, iv
Description: In vitro metabolic stability studies
as §12, §13, §14, §15, §16, §17, §18
University, Melbourne, Australia).
In vivo efficacy and PK studies
as §19, §20, §21, §22, §23, §24, §25, §26, §27, §28

[21] = target: S. aureus MGT (Staphylococcus aureus, UniProt Q99T05); assay: Inhibition of glycosyltransferase, continuous fluorescence assay with dansyl-Lys lipid II
From the text: Confirmative dose–response assays were subsequently conducted with continuous fluorescent activity assay using a dansyl-labelled, lysine-lipid II substrate[47]. […] The data were fitted to a simple saturation model of inhibitor binding to a single site, from which IC50 values were extracted.

[22] = tested on: E. faecalis VanA, ci; assay: MIC determination (broth microdilution); settings: Enterococcus faecalis
Description: as §1

[23] = tested on: S. aureus MRSA, ATCC 43300; assay: MIC determination (broth microdilution); settings: Staphylococcus aureus
Description: as §1

[24] = tested on: Human red blood cells; settings: male, 1 h
Description: Human male red blood cells were isolated from fresh whole blood sample and washed with phosphate
buffered saline (PBS) 3 times. Red blood cells were diluted 1/200 with PBS for the haemolysis assay.
Each compound was assayed at 4 different concentrations in quadruplicate. Control items (100 μM
tamoxifen and 1% triton X100) were also assayed in quadruplicate. Background was determined with
1% DMF. The assay was performed for 1 h at 37 °C. The samples were then centrifuged for 10 min at
4°C at 1000 × g, the supernatant was recovered and absorption was measured at 415 nm. Results are
expressed as the % haemolysis compared to 1% triton X100 after background was subtracted, and
fitting dose response curve with Prism (GraphPad) to extract HC50 values.

[25] = tested on: PBP1 from C. difficile; assay: Glycosyltransferase activity by HPLC, NBD-lipid II; settings: 200 μg ml^−1, NBD-lipid II
Description: (§30) We then monitored the transformation of fluorescent NBD-lipid II by two different GT enzymes, PBP1 from Clostridium difficile and MGT from S. aureus.
(§31) 25 °C. The reaction was initiated by addition of glycosyltransferease (2.5 µg mL-1) and terminated by
(§32) The reaction mixtures were then analysed by a
(§33) HPLC system (Hitachi) equipped with an anion-exchange column (5 μm, 4.6 × 250 mm, SAX1, Supelco
(§34) Co.) using a linear gradient of NH4OAc/MeOH (20 mM to 1 M) at a flow rate of 1 mL min-1. The signals
(§35) were detected with a fluorometer at λex = 355 nm and λem = 460 nm.

[26] = tested on: S.aureus MRSA; assay: MIC, chemotype M3 library (Supplementary Table 1); settings: Staphylococcus aureus
Description: as §1

[27] = tested on: S.aureus MSSA; assay: MIC, chemotype M3 library (Supplementary Table 1); settings: Staphylococcus aureus
Description: as §1

[28] = tested on: E. faecalis; assay: MIC, chemotype M3 library (Supplementary Table 1); settings: Enterococcus faecalis
Description: as §1

[29] = tested on: S. pneumoniae MDR, ATCC 700677; assay: MIC determination (broth microdilution); settings: Streptococcus pneumoniae, ATCC700677
Description: as §1

[30] = tested on: S. aureus MSSA, ATCC 25923; assay: MIC determination (broth microdilution); settings: Staphylococcus aureus
Description: as §1

[31] = target: MGT from S. aureus (Staphylococcus aureus, UniProt Q99T05); assay: Glycosyltransferase activity by HPLC, NBD-lipid II; settings: 200 μg ml^−1, NBD-lipid II
Description: as §30, §31, §32, §33, §34, §35

[32] = In vivo maximum tolerated dose, i.p.; settings: mice
Description: In vivo Maximum Tolerated Dose
as §2, §3, §4, §5
the first 30 min post-dosing.
as §6, §7, §8, §9, §10, §11

[33] = tested on: S. aureus NRS 1—GISA; assay: MIC determination (broth microdilution); settings: Staphylococcus aureus, NRS1
Description: as §1

[34] = tested on: E. coli ATCC 25922; assay: MIC determination (broth microdilution); settings: Escherichia coli, ATCC25922
Description: as §1

[35] = tested on: S. aureus VRS 1; assay: MIC determination (broth microdilution); settings: Staphylococcus aureus, VRS1
Description: as §1

[36] = tested on: S.aureus SG511; settings: no reference given; cited from earlier work
[37] = tested on: TG; settings: at 0.1 μg ml^−1; no reference given; cited from earlier work
[38] = tested on: staphylococci; parameters: method as in earlier work; settings: cited from earlier work
[39] = tested on: MR S. aureus, VRE; parameters: method as in PMID 10464005; settings: cited from earlier work
[40] = tested on: enterococci; parameters: method as in earlier work; settings: cited from earlier work
[41] = parameters: method as in earlier work; settings: cited from earlier work
[42] = mouse mastitis, intramammary, 4 h after inoculation

S. aureus MGT, sequence (Q99T05 whole entry): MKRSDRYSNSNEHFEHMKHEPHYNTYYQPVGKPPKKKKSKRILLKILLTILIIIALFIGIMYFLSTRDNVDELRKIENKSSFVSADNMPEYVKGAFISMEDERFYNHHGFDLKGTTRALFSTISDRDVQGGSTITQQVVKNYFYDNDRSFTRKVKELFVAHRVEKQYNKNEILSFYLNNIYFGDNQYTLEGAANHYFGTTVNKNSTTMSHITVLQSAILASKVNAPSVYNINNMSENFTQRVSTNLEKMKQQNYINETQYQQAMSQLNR
MGT from S. aureus, sequence (Q99T05 whole entry): as above

## NC(CC(=O)NC1C(CO)OCC(NC(=O)Nc2ccc(Cl)c(Cl)c2)C1OC1OC(CO)C(O)C(O)C1NC(=O)Nc1ccc(OC(F)(F)F)cc1)c1ccc(-c2ccccc2)cc1 (stereo not shown) [ACL19378]
[1]
  MIC: 2 µg/mL
[2]; 50% serum
  Activity in the presence of serum: limited activity
[2]; Gram-positive bacteria
  MIC: ~2 µg/mL

## O=C(Nc1ccc(Cl)c(C(F)(F)F)c1)NC1COC(CO)C(n2c(NCc3ccccc3)nc3cc(C(F)(F)F)ccc32)C1O (stereo not shown) [ACL20215]
[3]; i.p., 50 mg kg^−1, 10 min after inoculation
  Survival 7 days: 100%
[3]; i.v., 4 mg kg^−1, 10 min after inoculation
  Survival 7 days: 10%
[4]
  MTD at 72 h: 100 mg/kg
[5]
  MIC: > 64 µg/mL
[6]
  MIC: 16 µg/mL (≈ 24.3 µM)
[7]
  Vd: 97.2 L/kg
  half-life: 27.2 h
[7]; Blood Cltotal
  clearance: 48.9 mL/min/kg
[7]; Plasma Cltotal
  clearance: 42.1 mL/min/kg
[8]; 10 μg ml-1, 3 h
  Accumulation of lipid II: -3.4 ± 12.7%
  Inhibit of PG: 0.5 ± 6.7%
[8]; 30 μg ml-1, 3 h
  Accumulation of lipid II: 17.7 ± 7.1%
  Inhibit of PG: 7.9 ± 0.9%
[8]; 100 μg ml-1, 3 h
  Accumulation of lipid II: 34.9 ± 0.6%
  Inhibit of PG: 17.0 ± 1.0%
[8]; 200 μg ml-1, 3 h
  Accumulation of lipid II: 47.1 ± 2.8%
[8]; concentration not given
  Accumulation of lipid II (in words): accumulation of lipid II, although to a lesser extent
[9]
  MIC: 4 µg/mL (≈ 6.08 µM)
[10]
  MIC: 4 µg/mL (≈ 6.08 µM)
[11]
  Metabolic stability (in vitro): No degradation
[12]
  MIC: 8 µg/mL (≈ 12.2 µM)
[13]
  MIC: 2 µg/mL (≈ 3.04 µM)
[14]
  blood plasma ratio: 0.86
[15]
  Metabolic stability (degradation of the compound): no degradation
[16]; 200 μg gland-1
  Glands Cleared: 0%
[16]; 200 μg gland-1, 14 h post treatment
  CFU/g gland: 8.36 ± 1.05 log10
[16]; 400 μg gland-1
  Glands Cleared: 0%
[16]; 400 μg gland-1, 14 h post treatment
  CFU/g gland: 7.77 ± 0.52 log10
[16]; 800 μg gland-1
  Glands Cleared: 0%
[16]; 800 μg gland-1, 14 h post treatment
  CFU/g gland: 6.60 ± 1.42 log10
[16]; 1000 μg gland-1
  Glands Cleared: 0%
[16]; 1000 μg gland-1, 14 h post treatment
  CFU/g gland: 5.72 ± 0.63 log10
[16]; mouse mastitis, intramammary
  PD50 (50% protective dose): >1,000 μg per gland
  PD100 (100% protective dose): >1,000 μg per gland
[16]; [42]
  ED2logc.f.u. (effective dose to reduce bacterial load by 2 × log(c.f.u.)): 730 μg per gland
  ED4logc.f.u. (effective dose to reduce bacterial load by 4 × log(c.f.u.)): 1,400 μg per gland
[17]
  MIC: 16 µg/mL (≈ 24.3 µM)
[18]
  MIC: 8 µg/mL (≈ 12.2 µM)
[19]
  MIC: 16 µg/mL (≈ 24.3 µM)
[20]
  % Dose in urine: < LLQ
[21]
  IC50: 25.8 µM and 26 µM
[22]
  MIC: 8 µg/mL (≈ 12.2 µM)
[23]
  MIC: 4 µg/mL (≈ 6.08 µM)
[24]
  HC50: 74 µg/mL
[25]
  Inhibitory effect on GT (single concentration): some inhibition; also recorded: only moderate effect
[26]
  MIC: 2 µg/mL (≈ 3.04 µM)
[27]
  MIC: 4 µg/mL (≈ 6.08 µM)
[28]
  MIC: 4 µg/mL (≈ 6.08 µM)
[29]
  MIC: 4 µg/mL (≈ 6.08 µM)
[30]
  MIC: 4 µg/mL (≈ 6.08 µM)
[31]
  Inhibitory effect on GT (single concentration): some inhibitory effect
[32]
  Good tolerance up to (dose): 60 mg/kg
  No mortality up to (dose): 100 mg/kg
[32]; 100 mg kg^−1
  Central/autonomic responses: some minor changes to central/autonomic responses
[33]
  MIC: 4 µg/mL (≈ 6.08 µM)
[34]
  MIC: > 64 µg/mL
[35]
  MIC: 4 µg/mL (≈ 6.08 µM)

## CC(=O)N[C@H]1[C@H](O[C@H]2[C@@H](OP(=O)(O)OC[C@@H](OCCC(C)CCCCC(C)(C)CCC(C)CCC(C)CCCC(C)C)C(=O)O)O[C@H](C(N)=O)[C@@](C)(O)[C@@H]2OC(N)=O)O[C@H](CO)[C@@H](O)[C@@H]1O (stereo partly shown) [Disaccharide-degradation product]
[36]
  MIC: > 50 µg/mL
[37]
  TG inhibition: 45%

## CCCCCCCCCCCCO[C@H](COP(=O)(O)O[C@H]1O[C@H](C(N)=O)[C@@H](O)[C@H](NC(=O)Nc2ccc(OC(F)(F)F)cc2)[C@H]1O[C@@H]1O[C@H](CO)[C@H](O)[C@H](O)[C@H]1NC(=O)c1cccc(C(F)(F)F)c1)C(=O)O [TS30153]
[38]
  MIC: 3.12 µg/mL (≈ 2.93 µM)
[39]
  MIC: 3.1 – 12.5 μg ml^–1
[40]
  MIC: 12.5 µg/mL (≈ 11.7 µM)
[41]
  In vivo activity: no in vivo activity

## CN[C@H](CC(C)C)C(=O)N[C@H]1C(=O)N[C@@H](CC(N)=O)C(=O)N[C@H]2C(=O)N[C@H]3C(=O)N[C@H](C(=O)N[C@H](C(=O)O)c4cc(O)cc(O)c4-c4cc3ccc4O)[C@H](O)c3ccc(c(Cl)c3)Oc3cc2cc(c3O[C@@H]2O[C@H](CO)[C@@H](O)[C@H](O)[C@H]2O[C@H]2C[C@](C)(N)[C@H](O)[C@H](C)O2)Oc2ccc(cc2Cl)[C@H]1O [Vancomycin, reference compound]
[8]; 10 μg ml-1, 3 h
  Accumulation of lipid II: 36.6 ± 6.2%
  Inhibit of PG: 12.8 ± 2.0%
[8]; 30 μg ml-1, 3 h
  Accumulation of lipid II: 106.8 ± 33.4%
  Inhibit of PG: 15.0 ± 3.5%
[8]; 100 μg ml-1, 3 h
  Accumulation of lipid II: 140.6 ± 30.8%
  Inhibit of PG: 21.3 ± 1.4%
[8]; 200 μg ml-1, 3 h
  Accumulation of lipid II: 151.5 ± 23.1%
  Inhibit of PG: 36.0 ± 2.8%
[10]
  MIC: 4 µg/mL (≈ 2.76 µM)
[12]
  MIC: 8 µg/mL (≈ 5.52 µM)
[18]
  MIC: > 64 µg/mL
[23]
  MIC: 1 µg/mL (≈ 0.69 µM)
[29]
  MIC: 2 µg/mL (≈ 1.38 µM)
[30]
  MIC: 1 µg/mL (≈ 0.69 µM)
[33]
  MIC: 4 µg/mL (≈ 2.76 µM)
[35]
  MIC: > 64 µg/mL
